Experiments:
Experiment in all cases: biochemical
Details in all cases: read-out: % Inhibition
[1] = biological target: T1, Adenosine A1 (Homo sapiens, UniProt P30542); parameters: Cerep/Eurofins selectivity panel, receptors, channels and transporters, per cent inhibition at 10 uM
T1 construct: gene ADORA1

[2] = biological target: T2, AdenosineA2B (Homo sapiens, UniProt P29275); parameters: Cerep/Eurofins selectivity panel, receptors, channels and transporters, per cent inhibition at 10 uM
T2 construct: gene ADORA2B

[3] = biological target: T3, Adrenergic β2 (Homo sapiens, UniProt P07550); parameters: Cerep/Eurofins selectivity panel, receptors, channels and transporters, per cent inhibition at 10 uM
T3 construct: gene ADRB2

[4] = biological target: T4, Angiotensin AT1 (Homo sapiens, UniProt P30556); parameters: Cerep/Eurofins selectivity panel, receptors, channels and transporters, per cent inhibition at 10 uM
T4 construct: gene AGTR1

[5] = biological target: T5, Angiotensin AT2 (Homo sapiens, UniProt P50052); parameters: Cerep/Eurofins selectivity panel, receptors, channels and transporters, per cent inhibition at 10 uM
T5 construct: gene AGTR2

[6] = biological target: T6, Cannabinoid CB1 (Homo sapiens, UniProt P21554); parameters: Cerep/Eurofins selectivity panel, receptors, channels and transporters, per cent inhibition at 10 uM
T6 construct: gene CNR1

[7] = biological target: T7, Cholecystokinin CCK1 (Homo sapiens, UniProt P32238); parameters: Cerep/Eurofins selectivity panel, receptors, channels and transporters, per cent inhibition at 10 uM
T7 construct: gene CCKAR

[8] = biological target: T8, Dopamine D1 (Homo sapiens, UniProt P21728); parameters: Cerep/Eurofins selectivity panel, receptors, channels and transporters, per cent inhibition at 10 uM
T8 construct: gene DRD1

[9] = biological target: T9, Estrogen Erα (Homo sapiens, UniProt P03372); parameters: Cerep/Eurofins selectivity panel, receptors, channels and transporters, per cent inhibition at 10 uM
T9 construct: gene ESR1

[10] = biological target: T10, Histamine H2 (Homo sapiens, UniProt P25021); parameters: Cerep/Eurofins selectivity panel, receptors, channels and transporters, per cent inhibition at 10 uM
T10 construct: gene HRH2

[11] = biological target: T11, Muscarinic M1 (Homo sapiens, UniProt P11229); parameters: Cerep/Eurofins selectivity panel, receptors, channels and transporters, per cent inhibition at 10 uM
T11 construct: gene CHRM1

[12] = biological target: T12, Muscarinic M2 (Homo sapiens, UniProt P08172); parameters: Cerep/Eurofins selectivity panel, receptors, channels and transporters, per cent inhibition at 10 uM
T12 construct: gene CHRM2

[13] = biological target: T13, Muscarinic M3 (Homo sapiens, UniProt P20309); parameters: Cerep/Eurofins selectivity panel, receptors, channels and transporters, per cent inhibition at 10 uM
T13 construct: gene CHRM3

[14] = biological target: T14, Opiate κ(OP2, KOP) (Homo sapiens, UniProt P41145); parameters: Cerep/Eurofins selectivity panel, receptors, channels and transporters, per cent inhibition at 10 uM
T14 construct: gene OPRK1

[15] = biological target: T15, Serotonin (5-Hydroxytryptamine) 5-HT3 (Homo sapiens, UniProt P46098); parameters: Cerep/Eurofins selectivity panel, receptors, channels and transporters, per cent inhibition at 10 uM
T15 construct: gene HTR3A

[16] = biological target: T16, Tachykinin NK2 (Homo sapiens, UniProt P21452); parameters: Cerep/Eurofins selectivity panel, receptors, channels and transporters, per cent inhibition at 10 uM
T16 construct: gene TACR2

[17] = biological target: T17, Tachykinin NK3 (Homo sapiens, UniProt P29371); parameters: Cerep/Eurofins selectivity panel, receptors, channels and transporters, per cent inhibition at 10 uM
T17 construct: gene TACR3

[18] = biological target: T18, Transporter, Dopamine (DAT) (Homo sapiens, UniProt Q01959); parameters: Cerep/Eurofins selectivity panel, receptors, channels and transporters, per cent inhibition at 10 uM
T18 construct: gene SLC6A3

[19] = biological target: T19, Transporter, Norepinephrine (NET) (Homo sapiens, UniProt P23975); parameters: Cerep/Eurofins selectivity panel, receptors, channels and transporters, per cent inhibition at 10 uM
T19 construct: gene SLC6A2

[20] = biological target: T20, Transporter, Serotonin (SERT) (Homo sapiens, UniProt P31645); parameters: Cerep/Eurofins selectivity panel, receptors, channels and transporters, per cent inhibition at 10 uM
T20 construct: gene SLC6A4

[21] = biological target: T21, Vasopressin V1b (Homo sapiens, UniProt P47901); parameters: Cerep/Eurofins selectivity panel, receptors, channels and transporters, per cent inhibition at 10 uM
T21 construct: gene AVPR1B

[22] = biological target: T22, Nitric Oxide Synthase, neuronal (nNOS) (Rattus norvegicus, UniProt P29476); parameters: Cerep/Eurofins selectivity panel, enzymes, per cent inhibition at 10 uM
T22 construct: gene Nos1

[23] = biological target: T23, Peptidase, Matrix metalloprotease, neutral endopeptidase (Homo sapiens, UniProt P08473); parameters: Cerep/Eurofins selectivity panel, enzymes, per cent inhibition at 10 uM
T23 construct: gene MME

[24] = biological target: T24, Serotonin (5-Hydroxytryptamine) 5-HT4 (Cavia porcellus, UniProt O70528); parameters: Cerep/Eurofins selectivity panel, receptors, channels and transporters, per cent inhibition at 10 uM
T24 construct: gene HTR4

[25] = biological target: T25, Anaphylatoxin C5a (Homo sapiens, UniProt P21730); parameters: Cerep/Eurofins selectivity panel, receptors, channels and transporters, per cent inhibition at 10 uM
T25 construct: gene C5AR1
T25 sequence (P21730 whole entry): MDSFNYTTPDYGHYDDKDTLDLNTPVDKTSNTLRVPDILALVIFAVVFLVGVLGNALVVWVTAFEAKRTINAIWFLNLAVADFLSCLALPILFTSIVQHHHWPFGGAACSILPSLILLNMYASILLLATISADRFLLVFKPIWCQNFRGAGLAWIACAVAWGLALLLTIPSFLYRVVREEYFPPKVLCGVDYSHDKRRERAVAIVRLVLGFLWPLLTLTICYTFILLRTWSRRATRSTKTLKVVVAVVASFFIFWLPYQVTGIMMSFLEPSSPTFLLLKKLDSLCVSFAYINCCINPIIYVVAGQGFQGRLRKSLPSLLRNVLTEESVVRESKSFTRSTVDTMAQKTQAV

T19 sequence (P23975 whole entry): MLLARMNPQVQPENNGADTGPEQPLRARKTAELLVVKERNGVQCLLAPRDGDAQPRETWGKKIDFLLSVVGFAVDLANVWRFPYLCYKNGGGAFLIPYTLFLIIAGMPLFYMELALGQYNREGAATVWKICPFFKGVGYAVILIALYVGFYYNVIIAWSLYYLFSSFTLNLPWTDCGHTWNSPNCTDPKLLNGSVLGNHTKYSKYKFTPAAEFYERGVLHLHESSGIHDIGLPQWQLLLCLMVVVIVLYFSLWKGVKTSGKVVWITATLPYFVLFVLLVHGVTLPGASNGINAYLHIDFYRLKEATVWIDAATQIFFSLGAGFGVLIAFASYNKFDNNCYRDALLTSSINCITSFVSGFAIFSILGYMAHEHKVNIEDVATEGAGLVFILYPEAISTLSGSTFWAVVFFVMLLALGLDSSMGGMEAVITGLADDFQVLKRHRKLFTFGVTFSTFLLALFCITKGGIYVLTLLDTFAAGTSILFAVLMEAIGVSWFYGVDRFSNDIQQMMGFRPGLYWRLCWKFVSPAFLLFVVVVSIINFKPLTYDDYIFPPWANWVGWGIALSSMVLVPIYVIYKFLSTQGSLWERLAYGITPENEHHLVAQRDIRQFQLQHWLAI
T12 sequence (P08172 whole entry): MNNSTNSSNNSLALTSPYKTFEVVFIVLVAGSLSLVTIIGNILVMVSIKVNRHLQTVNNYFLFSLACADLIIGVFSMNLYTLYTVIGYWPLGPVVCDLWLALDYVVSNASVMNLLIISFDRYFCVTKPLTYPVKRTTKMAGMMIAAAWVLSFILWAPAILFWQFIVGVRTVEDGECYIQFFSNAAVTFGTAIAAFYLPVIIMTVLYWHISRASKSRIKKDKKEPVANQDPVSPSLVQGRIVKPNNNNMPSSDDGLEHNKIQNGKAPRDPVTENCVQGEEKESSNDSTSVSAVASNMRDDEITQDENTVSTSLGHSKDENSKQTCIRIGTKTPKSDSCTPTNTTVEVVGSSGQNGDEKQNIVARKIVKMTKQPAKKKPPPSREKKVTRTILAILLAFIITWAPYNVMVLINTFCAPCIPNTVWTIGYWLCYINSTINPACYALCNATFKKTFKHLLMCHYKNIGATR
T20 sequence (P31645 whole entry): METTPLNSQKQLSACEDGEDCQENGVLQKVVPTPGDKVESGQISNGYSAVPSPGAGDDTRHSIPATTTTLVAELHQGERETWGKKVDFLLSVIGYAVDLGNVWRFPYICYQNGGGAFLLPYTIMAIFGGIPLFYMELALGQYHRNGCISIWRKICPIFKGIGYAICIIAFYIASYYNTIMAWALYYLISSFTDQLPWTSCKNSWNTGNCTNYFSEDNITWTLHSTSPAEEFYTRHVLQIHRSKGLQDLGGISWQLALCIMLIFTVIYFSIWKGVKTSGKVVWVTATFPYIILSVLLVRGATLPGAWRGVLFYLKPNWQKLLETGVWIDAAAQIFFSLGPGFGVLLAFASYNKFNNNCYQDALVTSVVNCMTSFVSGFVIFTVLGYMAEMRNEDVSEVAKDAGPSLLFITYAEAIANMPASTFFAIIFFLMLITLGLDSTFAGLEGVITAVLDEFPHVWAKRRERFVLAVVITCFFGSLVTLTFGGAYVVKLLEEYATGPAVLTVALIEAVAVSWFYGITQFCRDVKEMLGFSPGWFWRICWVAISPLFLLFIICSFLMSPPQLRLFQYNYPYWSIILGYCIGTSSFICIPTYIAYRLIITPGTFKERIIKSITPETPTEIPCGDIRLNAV
T6 sequence (P21554 whole entry): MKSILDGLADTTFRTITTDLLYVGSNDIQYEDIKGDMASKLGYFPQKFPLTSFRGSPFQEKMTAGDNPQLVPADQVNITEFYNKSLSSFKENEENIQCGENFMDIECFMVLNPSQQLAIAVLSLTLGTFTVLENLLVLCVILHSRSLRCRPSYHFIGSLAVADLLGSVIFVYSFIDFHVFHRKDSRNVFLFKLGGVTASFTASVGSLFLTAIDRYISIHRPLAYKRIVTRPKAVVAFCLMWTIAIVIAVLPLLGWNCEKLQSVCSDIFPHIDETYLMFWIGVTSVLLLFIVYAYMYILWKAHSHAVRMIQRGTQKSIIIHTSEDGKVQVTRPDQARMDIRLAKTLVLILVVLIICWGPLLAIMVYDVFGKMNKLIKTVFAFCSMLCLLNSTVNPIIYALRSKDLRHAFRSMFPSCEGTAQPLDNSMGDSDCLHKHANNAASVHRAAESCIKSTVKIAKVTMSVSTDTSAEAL
T4 sequence (P30556 whole entry): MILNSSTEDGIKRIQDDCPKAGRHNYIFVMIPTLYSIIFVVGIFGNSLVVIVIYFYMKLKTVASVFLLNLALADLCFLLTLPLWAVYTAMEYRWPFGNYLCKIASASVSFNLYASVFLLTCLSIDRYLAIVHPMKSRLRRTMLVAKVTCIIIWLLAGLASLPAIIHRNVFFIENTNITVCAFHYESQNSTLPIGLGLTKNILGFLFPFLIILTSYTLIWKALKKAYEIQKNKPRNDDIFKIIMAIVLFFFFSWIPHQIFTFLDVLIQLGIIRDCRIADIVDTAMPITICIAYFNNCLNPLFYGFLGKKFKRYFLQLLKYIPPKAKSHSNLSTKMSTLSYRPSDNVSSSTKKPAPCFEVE
T11 sequence (P11229 whole entry): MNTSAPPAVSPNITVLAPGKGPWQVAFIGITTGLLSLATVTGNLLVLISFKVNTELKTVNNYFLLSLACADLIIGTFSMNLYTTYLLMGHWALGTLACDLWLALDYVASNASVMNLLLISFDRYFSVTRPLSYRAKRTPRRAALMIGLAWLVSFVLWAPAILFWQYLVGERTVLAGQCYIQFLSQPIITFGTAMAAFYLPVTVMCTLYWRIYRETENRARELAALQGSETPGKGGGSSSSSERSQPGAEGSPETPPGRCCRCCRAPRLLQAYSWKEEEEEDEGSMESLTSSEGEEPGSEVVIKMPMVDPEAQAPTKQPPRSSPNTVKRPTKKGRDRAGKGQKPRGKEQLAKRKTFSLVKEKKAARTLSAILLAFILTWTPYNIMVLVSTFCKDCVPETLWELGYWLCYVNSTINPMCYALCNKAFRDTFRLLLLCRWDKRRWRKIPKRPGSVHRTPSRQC
T18 sequence (Q01959 whole entry): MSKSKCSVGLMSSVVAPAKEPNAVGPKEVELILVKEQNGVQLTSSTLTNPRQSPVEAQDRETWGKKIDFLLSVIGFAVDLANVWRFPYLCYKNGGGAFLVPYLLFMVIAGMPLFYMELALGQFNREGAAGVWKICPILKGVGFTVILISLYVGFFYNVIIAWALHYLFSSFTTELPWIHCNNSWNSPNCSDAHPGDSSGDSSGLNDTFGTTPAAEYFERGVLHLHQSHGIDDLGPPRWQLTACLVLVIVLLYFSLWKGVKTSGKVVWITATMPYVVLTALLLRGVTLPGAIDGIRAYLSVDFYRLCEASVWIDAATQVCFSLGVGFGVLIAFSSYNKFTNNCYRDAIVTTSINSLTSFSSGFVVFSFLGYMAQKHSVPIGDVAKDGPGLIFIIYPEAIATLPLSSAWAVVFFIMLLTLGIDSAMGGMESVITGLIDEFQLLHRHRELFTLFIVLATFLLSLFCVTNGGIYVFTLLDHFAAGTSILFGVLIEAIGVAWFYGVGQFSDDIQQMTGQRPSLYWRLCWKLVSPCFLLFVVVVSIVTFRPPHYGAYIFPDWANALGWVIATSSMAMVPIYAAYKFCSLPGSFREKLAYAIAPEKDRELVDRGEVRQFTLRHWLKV
T17 sequence (P29371 whole entry): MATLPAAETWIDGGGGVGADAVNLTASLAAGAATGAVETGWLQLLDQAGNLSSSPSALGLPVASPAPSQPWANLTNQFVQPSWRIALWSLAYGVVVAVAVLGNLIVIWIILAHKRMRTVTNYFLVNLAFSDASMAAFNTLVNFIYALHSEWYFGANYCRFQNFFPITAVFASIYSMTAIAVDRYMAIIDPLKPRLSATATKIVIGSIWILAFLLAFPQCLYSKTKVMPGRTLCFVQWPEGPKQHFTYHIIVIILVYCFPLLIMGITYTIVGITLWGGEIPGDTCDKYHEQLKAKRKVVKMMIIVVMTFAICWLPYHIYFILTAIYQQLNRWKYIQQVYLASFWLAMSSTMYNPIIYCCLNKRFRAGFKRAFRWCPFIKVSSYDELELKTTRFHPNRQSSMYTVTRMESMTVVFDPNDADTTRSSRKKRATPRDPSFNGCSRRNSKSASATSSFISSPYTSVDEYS
T15 sequence (P46098 whole entry): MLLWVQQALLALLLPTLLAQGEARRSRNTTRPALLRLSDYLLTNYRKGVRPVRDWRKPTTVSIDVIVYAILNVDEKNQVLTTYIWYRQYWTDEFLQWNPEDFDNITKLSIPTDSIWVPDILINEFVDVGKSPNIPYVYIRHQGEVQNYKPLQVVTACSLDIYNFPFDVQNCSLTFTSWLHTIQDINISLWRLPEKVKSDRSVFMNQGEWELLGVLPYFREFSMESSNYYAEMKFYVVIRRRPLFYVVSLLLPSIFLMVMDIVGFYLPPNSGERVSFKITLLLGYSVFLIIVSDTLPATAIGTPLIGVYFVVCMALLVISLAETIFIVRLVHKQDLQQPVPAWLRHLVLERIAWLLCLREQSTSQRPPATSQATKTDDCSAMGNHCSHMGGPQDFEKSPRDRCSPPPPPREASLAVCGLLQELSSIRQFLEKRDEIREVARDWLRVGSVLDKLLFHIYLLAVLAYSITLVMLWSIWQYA

## C[C@]1(Nc2cnc(C(F)(F)F)cn2)CCC[C@@H]1NC(=O)c1ncccc1-n1nccn1 [CVN45502]
[1]
  inhibition at 10 µM: 7%
[2]
  inhibition at 10 µM: -7%
[3]
  inhibition at 10 µM: 0%
[4]
  inhibition at 10 µM: -1%
[5]
  inhibition at 10 µM: 5%
[6]
  inhibition at 10 µM: 8%
[7]
  inhibition at 10 µM: -18%
[8]
  inhibition at 10 µM: 2%
[9]
  inhibition at 10 µM: 2%
[10]
  inhibition at 10 µM: -14%
[11]
  inhibition at 10 µM: -1%
[12]
  inhibition at 10 µM: -7%
[13]
  inhibition at 10 µM: -1%
[14]
  inhibition at 10 µM: 3%
[15]
  inhibition at 10 µM: -9%
[16]
  inhibition at 10 µM: -8%
[17]
  inhibition at 10 µM: 27%
[18]
  inhibition at 10 µM: 4%
[19]
  inhibition at 10 µM: -6%
[20]
  inhibition at 10 µM: 7%
[21]
  inhibition at 10 µM: -8%
[22]
  inhibition at 10 µM: 22%
[23]
  inhibition at 10 µM: 4%
[24]
  inhibition at 10 µM: -4%
[25]
  inhibition at 10 µM: 6%

Source: PMC9684079, “Pharmacological targeting of glutamatergic neurons within the brainstem for weight reduction” (Nature Metabolism, 2022)
